Earlier results, collected in patent publication US7547545B2, “Directed in vitro differentiation of marrow stromal cells into neural cell progenitors” (priority 2001, dated 2009).

How the values were obtained:
prostate tumor cells = settings: Cox et al. 1999
C6 glioma cells = settings: Sharma et al. 1987 and Ghosh et al. 1997
[1] = test system: medulloblastoma cell line, MCD-1; settings: MCD-1 cells, Moore et al. 1996

Compound: CNC[C@H](O)c1ccc(O)c(O)c1 [epinephrine]
- neuroendocrine characteristics (prostate tumor cells): induce prostate tumor cells to assume many of the characteristics of neuroendocrine cells

Compound: CCCC(=O)Nc1ncnc2c1ncn2[C@@H]1O[C@@H]2COP(=O)(O)O[C@H]2[C@H]1OC(=O)CCC [dbcAMP, dibutyryl cyclic AMP]
- neural differentiation (C6 glioma cells): induced neural differentiation
- extension of processes [1]: greatly increase the extension of processes
- neuroendocrine characteristics (prostate tumor cells): induce prostate tumor cells to assume many of the characteristics of neuroendocrine cells

Compound: CC(C)NCC(O)c1ccc(O)c(O)c1 (centres unmarked) [isoproterenol]
- neuroendocrine characteristics (prostate tumor cells): induce prostate tumor cells to assume many of the characteristics of neuroendocrine cells
